Measurements taken from patent US7144922B2, “Method and compound for the prophylaxis or treatment of an immunodeficiency condition, such as AIDS” (priority 2002, dated 2006).
Like-named read-outs stand apart in the source and are kept apart here. One block for each compound: values may come before it.

Columns and labels:
[1] = tested on: CEM-SS T-lymphoblastoid cells; assay: Toxicity testing in CEM-SS T-lymphoblastoid cells (tetrazolium reduction); format: cell-based; conditions: for Toxicity % CC (cell control): day 6; for IC50: read-out: 50% inhibitory concentration, IC50 (drug induced toxicity)
Procedure: (§1) This assay was used to test the effectiveness of anti-HIV drug monotherapy in the established T-cell line CEM-SS infected with HIV-1RF, HIV-1IIIb, HIV-2ROD, or other cytolytic variants of HIV. The antiviral agent and control (known antiviral drug—AZT) efficacy and cytotoxicity were determined by the metabolic reduction of the tetrazolium salt MTS (available from Promega).
(§2) The drugs were solubilized in DMSO (dimethyl sulfoxide). Three to ten vials of the antiviral agent and AZT were prepared and maintained at −70° C. CEM-SS cells were in logarithmic growth phase at the time of experimentation. Virus (HIV-1RF) stocks that past the necessary quality controls (killing effect on the type of cells used, limited variability, etc) were thawed and maintained on ice until required for addition.
(§3) Half-log serial dilutions of the antiviral agent or compound of the invention, H2K1001 (90i), were made in tissue culture media (RPMI 1640 without phenol red, supplemented with 10% heat inactivated fetal bovine serum, 1% L-Glutamine, 1% Pen/Strep and 50 ug/ml gentimycin). Virus, cell, drug and diluent (ethanol) controls were included for these tests. Virus was added after cells and drugs were mixed. Cell, drug, and virus containing cultures were incubated for six (6) days without additional feeding at which time the cultures were evaluated macrosopically and microscopically for cell toxicity, and the tetrazolium salt MTS was added for quantitation by the colorimetric determination of formazan production (optical density).
(§4) Drug efficacy and cytotoxicity effects were determined six days after infection by the metabolic reduction of the tetrazolium salt XTT to its' formazan by surviving cells and was quantitated by determination of optical density at 450 nm with background subtraction at 650 nm (Tables 1–4).
(§5) The drug plate analysis reports from this assay are provided below in Tables 1–4. Calculated endpoints (EC50, etc.) were determined using Cho and Cho Median Effect Equation (Daids Virology Manual for HIV Laboratories, Compiled by The Division of Aids, National Institute of Allergy and Infectious Diseases, National Institutes of Health and Collaborating Investigators, Version January 1997).

HIV-1 (RF) = assay: Antiviral drug assay in CEM-SS cells infected with HIV-1 RF (efficacy, tetrazolium reduction); format: cell-based; conditions: for Efficacy % CC (cell control): CEM-SS, HIV-1 (RF), day 6; for EC50: read-out: 50% effective concentration (EC50)
Procedure: Antiviral Drug Assay in CEM-SS Cells
as §1, §2, §3, §4, §5

[2] = tested on: peripheral blood mononuclear cells (PBMC); assay: Toxicity testing in PBMC (tetrazolium MTS reduction); format: cell-based
Procedure: (§6) This assay was used to test the effectiveness of anti-HIV drug monotherapy in peripheral blood mononuclear cells (PBMC) infected with clinical isolates of HIV-1. Drug efficacy was determined by the production of supernatant HIV-1 p24. Drug-induced cytotoxicity was determined by the metabolic reduction of tetrazolium salts (MTS; Promega).
(§7) The antiviral drug or agent of the invention, H2K-1001 (90i), was solubilized. PBMCs, stimulated with PHA (phytohemagglutinin) for three days were employed throughout. Virus stocks (U.S. Clinical isolates) grown in PBMCs only, that past the necessary quality controls (i.e., replicate to high titer in PBMCs and meet the requirements as to genotype and phenotype) were rapidly thawed and maintained on ice until required for infection.
(§8) Half-log serial dilutions of test drugs and controls were prepared in tissue culture media (RPMI 1640 without phenol red, supplemented with 10% heat inactivated fetal bovine serum, 1% L-Glutamine, 1% Pen/Strep and 50 μg/ml gentamicin). Virus and cell controls were included on each test plate. Virus was added after cells and drugs were mixed. Cell, drug and virus containing cultures were incubated for seven (7) days with an interim feeding at day three or four.
(§9) Supernatants were sampled at seven days for p24 determination by antigen capture ELISA. Cytotoxicity was measured by the metabolic reduction of the tetrazolium salt according to the manufacturer's (Promega) recommendations.
(§10) The drug analysis reports from these studies are provided below in Tables 7–10. Efficacy (EC50) and viability (IC50) determinations were made using Cho and Cho Median Effect Equation, as noted above. Efficacy is expressed as the 50% effective concentration (EC50) and drug induced toxicity as the 50% inhibitory concentration (IC50).

susceptible isolates = assay: AZT in studies of susceptible isolates in PBMCs; format: cell-based, HIV-1; conditions: typical value
Procedure: Testing in PBMCs was directed against a primary clinical isolate of HIV-1 P2, which is resistant to a variety of non-nucleoside inhibitors or HIV-1 reverse transcriptase and, in our hands, AZT. Testing AZT (control) against this virus, as expected, produced a relatively high EC50 of 3 uM. Typically AZT produces EC50s of less than 0.01 uM in studies of susceptible isolates in PBMCs.

HIV-1 (P2) = assay: Antiviral drug assay in PBMC infected with clinical isolate HIV-1 P2 (supernatant p24 ELISA); format: cell-based; conditions: for Efficacy % p24 Reduction: HIV-1 P2, day 7
Procedure: as §6, §7, §8, §9, §10

EC50 (HIV-1 (RF); CEM-SS cells, HIV-1 RF): ~3.5 nM | EC50 (susceptible isolates): < 10 nM | EC50 (HIV-1 (P2); clinical isolate HIV-1 P2, read-out: EC50): 3000 nM
Compound: Cc1cn([C@H]2C[C@H](N=[N+]=[N-])[C@@H](CO)O2)c(=O)[nH]c1=O [AZT, reference compound]
Toxicity % CC (cell control) ([1]; 0.001 uM, CEM-SS): 93% | Toxicity % CC (cell control) ([1]; 0.003 uM, CEM-SS): 100% | Toxicity % CC (cell control) ([1]; 0.01 uM, CEM-SS): 109% | Toxicity % CC (cell control) ([1]; 0.03 uM, CEM-SS): 104% | Toxicity % CC (cell control) ([1]; 0.1 uM, CEM-SS): 102% | Toxicity % CC (cell control) ([1]; 0.3 uM, CEM-SS): 102% | Toxicity % CC (cell control) ([1]; 1 uM, CEM-SS): 96% | Toxicity % CC (cell control) ([1]; 3 uM, CEM-SS): 95% | Toxicity % CC (cell control) ([1]; 10 uM, CEM-SS): 95% | IC50 ([1]; CEM-SS cells): > 10000 nM | Efficacy % CC (cell control) (HIV-1 (RF); 0.001 uM): 42% | Efficacy % CC (cell control) (HIV-1 (RF); 0.003 uM): 44% | Efficacy % CC (cell control) (HIV-1 (RF); 0.01 uM): 90% | Efficacy % CC (cell control) (HIV-1 (RF); 0.03 uM): 83% | Efficacy % CC (cell control) (HIV-1 (RF); 0.1 uM): 85% | Efficacy % CC (cell control) (HIV-1 (RF); 0.3 uM): 82% | Efficacy % CC (cell control) (HIV-1 (RF); 1 uM): 90% | Efficacy % CC (cell control) (HIV-1 (RF); 3 uM): 82% | Efficacy % CC (cell control) (HIV-1 (RF); 10 uM): 87% | Toxicity % CC (cell control) ([2]; 0.001 uM): 100% | Toxicity % CC (cell control) ([2]; 0.003 uM): 111% | Toxicity % CC (cell control) ([2]; 0.01 uM): 100% | Toxicity % CC (cell control) ([2]; 0.03 uM): 99% | Toxicity % CC (cell control) ([2]; 0.10 uM): 101% | Toxicity % CC (cell control) ([2]; 0.32 uM): 99% | Toxicity % CC (cell control) ([2]; 1 uM): 105% | Toxicity % CC (cell control) ([2]; 3 uM): 105% | Toxicity % CC (cell control) ([2]; 10 uM): 104% | Efficacy % p24 Reduction (HIV-1 (P2); 0.001 uM): 12% | Efficacy % p24 Reduction (HIV-1 (P2); 0.003 uM): 21% | Efficacy % p24 Reduction (HIV-1 (P2); 0.01 uM): 14% | Efficacy % p24 Reduction (HIV-1 (P2); 0.03 uM): 10% | Efficacy % p24 Reduction (HIV-1 (P2); 0.10 uM): 20% | Efficacy % p24 Reduction (HIV-1 (P2); 0.32 uM): 26% | Efficacy % p24 Reduction (HIV-1 (P2); 1 uM): 22% | Efficacy % p24 Reduction (HIV-1 (P2); 3 uM): 51% | Efficacy % p24 Reduction (HIV-1 (P2); 10 uM): 77%

Compound: O=C(OCCOCCOC(=O)c1ccccc1)c1ccccc1 [H2K1001 (90i), diethylene glycol dibenzoate]
Toxicity % CC (cell control) ([1]; 0.01 ug/ml, CEM-SS): 100% | Toxicity % CC (cell control) ([1]; 0.03 ug/ml, CEM-SS): 103% | Toxicity % CC (cell control) ([1]; 0.1 ug/ml, CEM-SS): 104% | Toxicity % CC (cell control) ([1]; 0.3 ug/ml, CEM-SS): 100% | Toxicity % CC (cell control) ([1]; 1 ug/ml, CEM-SS): 100% | Toxicity % CC (cell control) ([1]; 3 ug/ml, CEM-SS): 99% | Toxicity % CC (cell control) ([1]; 10 ug/ml, CEM-SS): 93% | Toxicity % CC (cell control) ([1]; 33 ug/ml, CEM-SS): 94% | Toxicity % CC (cell control) ([1]; 100 ug/ml, CEM-SS): 106% | 50% inhibitory concentration, IC50 (drug induced toxicity) ([1]; CEM-SS cells, listed as 90i): > 100 µg/mL | IC50 ([1]; Homo sapiens, CEM-SS): > 100 µg/mL | Efficacy % CC (cell control) (HIV-1 (RF); 0.01 ug/ml): 42% | Efficacy % CC (cell control) (HIV-1 (RF); 0.03 ug/ml): 80% | Efficacy % CC (cell control) (HIV-1 (RF); 0.1 ug/ml): 87% | Efficacy % CC (cell control) (HIV-1 (RF); 0.3 ug/ml): 83% | Efficacy % CC (cell control) (HIV-1 (RF); 1 ug/ml): 84% | Efficacy % CC (cell control) (HIV-1 (RF); 3 ug/ml): 84% | Efficacy % CC (cell control) (HIV-1 (RF); 10 ug/ml): 82% | Efficacy % CC (cell control) (HIV-1 (RF); 33 ug/ml): 86% | Efficacy % CC (cell control) (HIV-1 (RF); 100 ug/ml): 88% | 50% effective concentration (EC50) (HIV-1 (RF); CEM-SS cells, HIV-1 RF, listed as 90i): approximately 0.020 ug/ml | EC50 (HIV-1 (RF); Human immunodeficiency virus 1, CEM-SS, CEM-SS cells, HIV-1 RF): 0.02 µg/mL | Toxicity % CC (cell control) ([2]; 0.01 ug/ml): 94% | Toxicity % CC (cell control) ([2]; 0.03 ug/ml): 103% | Toxicity % CC (cell control) ([2]; 0.10 ug/ml): 91% | Toxicity % CC (cell control) ([2]; 0.33 ug/ml): 94% | Toxicity % CC (cell control) ([2]; 1 ug/ml): 97% | Toxicity % CC (cell control) ([2]; 3 ug/ml (3.2 in Table 11)): 94% | Toxicity % CC (cell control) ([2]; 10 ug/ml): 100% | Toxicity % CC (cell control) ([2]; 32 ug/ml): 104% | Toxicity % CC (cell control) ([2]; 100 ug/ml): 111% | IC50 ([2]; no unit printed, read-out: IC50 (drug induced toxicity)): > 100 µg/mL | IC50 ([2]; read-out: 50% inhibitory concentration, IC50 (drug induced toxicity)): > 100 µg/mL | Efficacy % p24 Reduction (HIV-1 (P2); 0.01 ug/ml): 23% | Efficacy % p24 Reduction (HIV-1 (P2); 0.03 ug/ml): 25% | Efficacy % p24 Reduction (HIV-1 (P2); 0.10 ug/ml): 36% | Efficacy % p24 Reduction (HIV-1 (P2); 0.33 ug/ml): 36% | Efficacy % p24 Reduction (HIV-1 (P2); 1 ug/ml): 53% | Efficacy % p24 Reduction (HIV-1 (P2); 3 ug/ml (3.2 in Table 11)): 87% | Efficacy % p24 Reduction (HIV-1 (P2); 10 ug/ml): 95% | Efficacy % p24 Reduction (HIV-1 (P2); 32 ug/ml): 94% | Efficacy % p24 Reduction (HIV-1 (P2); 100 ug/ml): 93% | EC50 (HIV-1 (P2); Human immunodeficiency virus 1, PBMC, clinical isolate HIV-1 P2, read-out: 50% effective concentration (EC50)): 0.8 µg/mL | 50% effective concentration (EC50) (HIV-1 (P2); clinical isolate HIV-1 P2, listed as 90i): approximately 0.8 ug/ml
